Assay results published in US20110301238A1, “SEIZURE RELATED DISORDERS AND THERAPEUTIC METHODS THEREOF” (priority 2010, published 2011).
Like-named read-outs stand apart in the source and are kept apart here.

Experiments:
[1] = system: mouse seizure models; parameters: key: +: Efficacy in mouse seizure models is indicated as plus; −: minus; some (+/−); conditions: literature; the PTZ model was performed in rats for PHB, PHT and VPA; cited from earlier work
[2] = system: mouse seizure models; parameters: key: +: Efficacy in mouse seizure models is indicated as plus; −: minus; some (+/−); conditions: literature; cited from earlier work
[3] = system: mouse seizure models; parameters: key: +: Efficacy in mouse seizure models is indicated as plus; −: minus; some (+/−); conditions: literature; cited from earlier work; remark: listed apart in the source
[4] = system: mouse seizure models; parameters: key: +: Efficacy in mouse seizure models is indicated as plus; −: minus; some (+/−); conditions: literature; cited from earlier work; remark: listed apart in the source
[5] = system: Wistar rats; parameters: key to Efficacy in PTZ in PILO-SE rodents (chronic): +: Efficacy in mouse seizure models is indicated as plus; −: minus; some (+/−); conditions: cited from earlier work; for sensitivity of PTZ-induced seizures to drug: one month after pilocarpine, subcutaneous PTZ
[6] = system: CF1 mice; assay: PTZ (i.v.) seizure threshold, second hit model in chronic stage of pilocarpine SE model; format: in vivo; parameters: key to Efficacy in PTZ in PILO-SE rodents (chronic): +: Efficacy in mouse seizure models is indicated as plus; −: minus; some (+/−)
Protocol: The pilocarpine CF1 mouse model used in this study was slightly modified from our previous description (Borges et al., 2003, Borges et al., 2004, Borges et al., 2006, Borges et al., 2008). 26-43 g CF1 mice were injected with methylatropine (2 mg/kg i.p. in 0.9% NaCl) to minimize peripheral side effects followed after 15-30 min by different doses of pilocarpine for CF1 mice (270-360 mg/kg, s.c.). About fifty percent of injected mice experienced behavioral status epilepticus (SE) lasting about four hours as defined by continuous seizure activity consisting mainly of whole body continuous clonic seizures. 4.5 h after pilocarpine injection, all mice were injected with pentobarbital (22.5 mg/kg, i.p.) followed by 1 ml 5% dextrose in lactate Ringer's solution (i.p.). After SE, mice were monitored daily, hand-fed moistened cookies and injected with 5% dextrose in lactate Ringer's solution twice a day for about three days and thereafter when needed. Spontaneous and handling-induced seizures, including stage 3-5 seizures, jumping and wild running, were noted. […] “Sham control” mice received methylatropine and pentobarbital, but saline instead of pilocarpine. Out of a total of 205 mice injected with pilocarpine, the inventors obtained 44% SE, 41% no SE mice, while 14% of mice died. In the chronic stage of the pilocarpine model, the seizure thresholds for the first generalized clonic and tonic seizures induced by pentylenetetrazole (PTZ, i.v.) as a measure for seizure susceptibility of SE, no SE and control mice were assessed. As previously described ([…] et al., 2008, Willis et al., 2009), 10 mg/ml PTZ dissolved in saline was infused into the tail vein at 150 μl/min. The latencies to the first generalized myoclonic seizure and tonic extension were determined and converted to seizure thresholds expressed as mg/kg body weight. Mice were euthanized by cervical dislocation immediately after the tonic extension seizure.

[7] = system: mouse seizure models; assay: PTZ (acute) seizure model; format: in vivo; parameters: key to Efficacy in PTZ (acute): +: Efficacy in mouse seizure models is indicated as plus; −: minus; some (+/−)
[8] = system: acute seizure models; assay: Fluorothyl acute seizure model; format: in vivo; conditions: 30% triheptanoin (Willis and Borges in preparation)
[9] = Brain metabolite analysis in chronic stage of pilocarpine model (GC-MS/LC-MS); format: in vivo, CF1 mice; conditions: for brain BHB (β-hydroxybutyrate) / brain Fumarate (%) / brain GABA / brain aspartate (%) / brain citrate / brain glutamate / brain glutamine / brain malate (%) / brain succinate: 35% triheptanoin for three weeks
Source text: (§1) Both groups of mice received standard diet during the phase of epileptogenesis, the first two weeks after SE. They were then divided into two groups of equal average weight and received either standard or 35% triheptanoin-containing diet for three weeks. To avoid metabolite changes induced by anesthesia, mice were killed by cervical dislocation and then decapitated. Within 22-32 seconds brains without cerebellum were frozen in liquid nitrogen. Trunk blood was collected in heparinized tubes for analysis of β-hydroxybutyrate and glucose using kits from Pointe Scientific and […], respectively. Brains were stored at -80 C and shipped to the Metabolic Mouse Phenotyping Center at Case Western University for chromatography mass spectrometry (GC-MS/LC-MS) analysis and characterization of intermediates and products of the CAC and acyl-CoA's.

[10] = system: CD1 mice; assay: Maximal electroshock threshold test (MEST); format: in vivo; parameters: key to Efficacy in MEST (acute): +: Efficacy in mouse seizure models is indicated as plus; −: minus; some (+/−)
Protocol: 0.5% Tetracaine (Sigma Aldrich) in 0.9% NaCl solution was applied to corneas 30 minutes prior to stimulation. Saline solution was also applied to corneas and electrodes immediately prior to stimulation to ensure solid conduction. Mice were administered corneal electroshocks, which were generated using a Hugo Sachs Type 211 rodent shocker (Harvard Apparatus, Germany). Stimulation parameters of 50-60 Hz sine wave frequency, 0.2 second shock duration starting at an 11 mA current were used (Giardina and Gasior, 2009). Immediately following shock administration mouse seizure behaviour was observed. Severe clonic convulsions followed by tonic extension of both forelimbs were classified as seizures. 1 mA increments were used to determine the seizure threshold CC50 value using the up down method (Kimball et al., 1957). All mice were terminated via cervical dislocation immediately following seizure observational time.

[11] = Protocol: All mice were housed under a 12 h light dark cycle with free access to food and water. […] Adult male CD1 mice (20-35 g, Australian Institute for Bioengineering and Nanotechnology, Australia) were fed similar diet, prepared by Western Specialty Feed (West Australia). […] Diets were mixed fresh every 3-4 days in the laboratory, dried and then supplied to the mice. Mice were initially weighed daily to ensure adequate nutrition.
After 4 days habituation, food intake and body weight were determined daily and then averaged per day for each mouse. 24 h urine samples were taken and organic acids isolated by liquid partition chromatography and trimethylsilyl derivatives quantified by gas chromatography mass spectrometry (Sweetman, 1991). In a separate study mice were fed respective diets for 3 weeks and were decapitated after isoflurane anaesthesia between 1-4 pm. Trunk blood was collected on absorbent filter paper for measurement of acyl-carnitine levels in dried blood spots using tandem mass spectrometry modified from the method of Rashed et al. (Rashed et al., 1997).

[12] = Plasma β-hydroxybutyrate and glucose in pilocarpine model; format: in vivo, CF1 mice; conditions: no significant changes; range over the SE/no SE and diet groups
Source text: as §1

[13] = system: CF1 mice; assay: Corneal kindling; format: in vivo; parameters: key to Delay in corneal kindling (chronic): +: Efficacy in mouse seizure models is indicated as plus; −: minus; some (+/−)
Protocol: The corneal kindling model was slightly modified from the original protocol ([…] and […], 1998) with kindling twice a day with at least 4 h intervals. A topical anesthetic (0.5% tetracaine hydrochloride ophthalmic solution) was applied to the corneas 10-15 min before stimulation. After wetting the electrodes with 0.9% NaCl immediately before testing, 9 mA 0.4 ms duration pulses at 50 Hz were applied to the corneas for 3 seconds by a constant-current device (ECT Unit 57800, Ugo Basile). Mice were manually held during stimulation and then released for behavioral observation. Seizures were scored according to a modified Racine scale (Racine, 1972) as described by […] and […] (1998) with 0=no reaction or immobility; 1=jaw clonus; 2=myoclonic twitches in the forelimbs, sometimes with head nodding; 3=clonic convulsions in the forelimbs; 4=clonic convulsions in the forelimbs with rearing and falling; 5=loss of balance. […] Both groups had the same average seizure scores for the full kindling period and the last three days of kindling. During the five following weeks, mice were rekindled every week twice a day on two consecutive days and the scores were averaged.

[14] = Urine organic acids (GC-MS); format: in vivo, mice; conditions: 24 h urine; levels well below those of propionic acidemia patients
[15] = system: mouse seizure models; assay: 6 Hz (acute) seizure model; format: in vivo; parameters: key to Efficacy in 6 Hz (acute): +: Efficacy in mouse seizure models is indicated as plus; −: minus; some (+/−)
[16] = 30% triheptanoin (Willis and Borges in preparation)
[17] = chronically epileptic SE mice, not in no SE mice

Which “Efficacy in PTZ (acute)” value [1] does the source give for `NC(=O)N1c2ccccc2C=Cc2ccccc21` [CBZ, carbamazepine] here?
The value was “−”.

What about the “Efficacy in 6 Hz (acute)” value [2] of the same compound?
The value was “+/−”.

And the “Efficacy in MEST (acute)” value [3]?
The value was “+”.

Which “Delay in corneal kindling (chronic)” value [4] does the source give for `CC[C@@H](C(N)=O)N1CCCC1=O` [LEV, levetiracetam] here?
Its value is “+”.

And the “Efficacy in PTZ (acute)” value [1]?
The value was “−”.

What about the “Efficacy in 6 Hz (acute)” value [2] of the same compound?
The value was “+”.

What about the “Efficacy in MEST (acute)” value [3] of the same compound?
Its value is “−”.

Which “sensitivity of PTZ-induced seizures to drug” value ([5]; SE Wistar rats) does the source give for `O=C1NC(=O)C(c2ccccc2)(c2ccccc2)N1` [PHT, phenyloin] here?
Its value is “not in SE rats”.

And the “Efficacy in PTZ in PILO-SE rodents (chronic)” value ([5]; literature, PTZ model performed in rats for PHB, PHT and VPA)?
Its value is “−”.

And the “sensitivity of PTZ-induced seizures to drug” value ([5]; no SE Wistar rats)?
Its value is “sensitive”.

And the “Efficacy in PTZ (acute)” value [1]?
Its value is “−”.

And the “Efficacy in 6 Hz (acute)” value [2]?
Its value is “+”.

What about the “Efficacy in MEST (acute)” value [3] of the same compound?
Its value is “+”.

What does the source list for `CCCCCCC(=O)OCC(COC(=O)CCCCCC)OC(=O)CCCCCC` [Triheptanoin, 1,3-di(heptanoyloxy)propan-2-yl heptanoate]?
PTZ clonic seizure thresholds ([6]; SE or no SE mice, diet for three weeks after pilocarpine): no effect; reversal of increased susceptibility to PTZ tonic extension in SE mice ([6]; diet initiated immediately after pilocarpine injection, three weeks, p<0.05): about 40%; Efficacy in PTZ in PILO-SE rodents (chronic) ([6]; mice): +; reversal of susceptibility to PTZ tonic extension in no SE mice ([6]; no SE mice, three weeks after pilocarpine injection): but not in no SE mice; counteraction of 30% increased susceptibility to tonic extension seizure in SE mice ([6]; three week feeding initiated two weeks after pilocarpine injection, p<0.05): about 50%; anticonvulsant effect in acute PTZ (i.v.) model [7, 16]: No consistent anticovulsant effect; Efficacy in PTZ (acute) ([7]; mouse): −; anticonvulsant effect in acute fluorothyl model [8]: No consistent anticovulsant effect; brain β-hydroxybutyrate levels ([9]; 35% triheptanoin diet, both SE and no SE brains): doubled; brain BHB (β-hydroxybutyrate) ([9]; No SE mice): 108.9 ± 9.6 μmol/g wet weight; brain Fumarate (%) ([9]; No SE mice): 82.8 ± 3.8 % of control; brain GABA ([9]; No SE mice): 2.36 ± 0.13 μmol/g wet weight; brain aspartate (%) ([9]; No SE mice): 104.0 ± 7.0 % of control; brain citrate ([9]; No SE mice): 0.21 ± 0.01 μmol/g wet weight; brain glutamate ([9]; No SE mice): 21.59 ± 0.92 μmol/g wet weight; brain glutamine ([9]; No SE mice): 12.91 ± 0.49 μmol/g wet weight; brain malate (%) ([9]; No SE mice): 125.5 ± 7.7 % of control; brain succinate ([9]; No SE mice): 0.11 ± 0.01 μmol/g wet weight; brain BHB (β-hydroxybutyrate) ([9]; SE mice): 127.4 ± 15.7 μmol/g wet weight; brain Fumarate (%) ([9]; SE mice): 81.4 ± 2.9 % of control; brain GABA ([9]; SE mice): 2.16 ± 0.05 μmol/g wet weight; brain aspartate (%) ([9]; SE mice): 76.6 ± 4.1 % of control; brain citrate ([9]; SE mice): 0.2 ± 0.01 μmol/g wet weight; brain glutamate ([9]; SE mice): 22.01 ± 1.65 μmol/g wet weight; brain glutamine ([9]; SE mice): 13.15 ± 0.48 μmol/g wet weight; brain malate (%) ([9]; SE mice): 80.1 ± 3.9 % of control; brain succinate ([9]; SE mice): 0.10 ± 0.01 μmol/g wet weight; brain propionyl-CoA levels ([9]; SE mice, triheptanoin feeding, p<0.001): restored; steady state brain level of succinyl-CoA ([9]; by SE or diet): No significant changes; increase of brain HMG-CoA levels [9, 17]: 1.8 fold; increase of brain methylmalonyl-CoA levels [9, 17]: 1.4 fold; decrease of brain fumarate levels ([9]; no SE mice, p<0.05): 17%; increase of brain malate levels ([9]; no SE mice, p<0.05): 26%; MEST (critical current at which 50% of mice seize, CC50) ([10]; 35% of daily caloric intake as triheptanoin oil, after 3.5 and six weeks, CD1 mice, p=0.018 and p<0.0011): reproducible increase; Efficacy in MEST (acute) ([10]; mouse): +; body weights ([11]; 35% triheptanoin diet vs standard chow, up to 52 days, CF1 mice): statistically indistinguishable; tolerability ([11]; mouse, in vivo): well tolerated; plasma levels of glucose [12]: 174 to 228 mg/dL; plasma levels of β-hydroxybutyrate [12]: 0.17 to 0.28 mM; development of corneally kindled seizures ([13]; 35% triheptanoin feeding from three weeks prior to and throughout kindling, CF1 mice): delayed the development of kindled seizures; Delay in corneal kindling (chronic) ([13]; mouse): +; urine markers for propionic acidemia (methylmalonate, methylcitrate) [14]: some increases; anticonvulsant effect in acute 6 Hz model [15, 16]: No consistent anticovulsant effect; Efficacy in 6 Hz (acute) ([15]; mouse): −
